In patent US7297702B2, “Contraception method using competitive progesterone antagonists and novel compounds useful therein” (Schering Aktiengesellschaft, priority 2004, dated 2007):
Values joined by “and” are separate entries in the source; they are usually repeats but may differ in a detail not shown here. Identical values can stand only once.

Columns and labels:
[1] = system: rat; experiment: Dissociation factor: ovulation inhibition test versus implantation inhibition in the rat; type: in vivo; settings: for Dissociation factor: ratio of ovulation-inhibiting dose and implantation inhibiting dose, rat, peroral administration; for peripherally selective effectiveness (endometrium versus hypophysial-ovarian axis): endometrial effect very greatly pronounced, at the same dose at most only a slight central effect
Text: Such competitive progesterone antagonists can also be designated as dissociated, since at a specific threshold dose, although changes of the endometrium are observed, ovulation (central effect) is not inhibited. The ratio of ovulation-inhibiting dose and implantation inhibiting dose (dissociation factor) (as determined in the rat after peroral administration) can be used as a measurement of the dissociation. This ratio varies from species to species but is at least about 30 or higher in a dissociated or competitive progesterone antagonist.
Such competitive progesterone antagonists can also be designated as dissociated, since at a specific threshold dose, changes of the endometrium are observed, but the ovulation (central effect) is not inhibited. The ratio of ovulation-inhibiting and implantation inhibiting (dissociation factor) doses can be used as a measurement for the dissociation. It varies depending on the species and is about. 30 or more for a dissociated competitive progesterone antagonist (in the rat after peroral administration) to be used according to the invention.
To determine the ovulation-inhibiting doses of competitive progesterone antagonists, the ovulation-inhibiting test described below is performed on the rat; the respective abortively effective doses follow from the known (e.g., U.S. Pat. No. 5,095,129) rat abortive test.
Ovulation Inhibition Test on the Rat
For detection of ovulation-inhibiting substances, the rat is well-suited insofar as it spontaneously ovulates and the cycle can easily be observed by means of vaginal smears. This makes it possible to control the course of the test also during the treatment phase.
Female rats weighing 190-210 g, pro dosi 6 animals.
The animals are kept in Macrolon cages in rooms with controlled exposure to light (10 hours of darkness: 14 hours of brightness), fed a standard diet (pelletized rat food) and tap water at will.
The test substances are dissolved in benzyl benzoate/castor oil (1+9 v/v) and the daily dose is administered in a volume of 0.2 ml s.c.
In the oral application, the test substance is suspended in a carrier liquid (85 mg of Myrj® in 100 ml of 0.9% w/v NaCl solution) and the daily dose is administered in a volume of 0.5 ml.
Two cycles are observed before the beginning of the test by means of vaginal smears. Only animals with a regular 4-day cycle are used in the test. The assignment to the treatment groups takes place at random. Beginning in the metestrus, the test substance is administered over 4 days (day 1-4) and the cycle is further controlled.
On day 4 (after the administration), animals, which have an estrus or metestrus at the time of the vaginal smear, are ovariectomized on one side under ether anesthesia. Crush preparations are prepared from the tubes and examined by microscope for the presence of egg cells. On day 5, all animals (intact and unilaterally ovariectomized) are killed with CO2 gas and the tubes are prepared and examined in the same way.
In the individual dosage groups, the percentage of animals in which the ovulation was inhibited is determined.

[2] = system: rat; experiment: Implantation inhibition (antinidatory effectiveness) in the rat; type: in vivo
[3] = Thymolysis test for antiglucocorticoidal effect; type: in vivo; settings: thymolysis test (EP-A-0 283 428)
Text: This is seen from the thymolysis test for antiglucocorticoidal effect (EP-A-0 283 428).

[4] = system: women; experiment: Human Study 3: once-a-week oral onapristone; type: in vivo; settings: once-a-week oral 0.25-50 mg over two cycles
Description: Duration of the study: Evaluation of three cycles: pre-treatment, treatment and post-treatment cycles. • Regimen: 18 daily oral administration of 20 mg (group 1), 10 mg (group 2) and 5 mg (group 3) onapristone starting on day 1 of the cycle. c) Evaluation: • RIA, LH, FSH, E2 and progesterone and cortisol during the pre-treatment, treatment and post-treatment cycles. • Evaluation of endometrial biopsies and collection of the uterine fluid (by prevical) on day 16 and day 23 of the treatment cycle (see appendix for details) • Occurrence of menstrual bleeding. Human Study 3: Effects of once-a-week administration of onapristone on ovulation, endometrial morphology and biochemistry a) Objective:
Groups of volunteers: […] (five treatment groups and a control group) of 8-10 women with ligated oviducts.
Duration of the study: Evaluation of four cycles: pre-treatment, two treatment and post-treatment cycles.
Once-a-week oral administration of 50 mg (group 1) 20 mg (group 2), 10 mg (group 3) 2 mg ([…]) and 0.25 mg (group 5), onapristone starting on day 1 of the cycle over the two cycles.
RIA, LH, FSH, E2 and progesterone during the pre-treatment, treatment and post-treatment cycles.
Evaluation of endometrial biopsies and collection of the uterine fluid on day 16 and day 23 of both treatment cycles (see appendix for details).
Occurrence of menstrual bleeding and cycle abnormalities: […]

[5] = system: humans; settings: 50 mg, given during the late luteal phase; cited from earlier work
[6] = system: endometrium; experiment: Weekly s.c. Onapriston in bonnet monkeys: endometrial histology (biopsy day 20 of second cycle); type: in vivo, Macaca radiata; settings: both treatment groups (5 mg and 10 mg weekly s.c.), after 7 administrations
Text: (§1) The above-described use of competitive progesterone antagonists is evidenced by tests performed with Onapriston [11β-(4-dimethylaminophenyl)-17α-hydroxy-17β-(3-hydroxy-propyl)-13α-methyl-4,9-gonadien-3-one; EP-A-0129499], a typically competitive progesterone antagonist, on adult, female bonnet monkeys (Macaca radiata).

[7] = system: adult, female bonnet monkeys (Macaca radiata); experiment: Weekly s.c. Onapriston in bonnet monkeys: length of menstrual cycle and menstrual period; type: in vivo; settings: for Length of MC, After-treatment Cycle / Length of MC, Treatment Cycle 1 / Length of MC, Treatment Cycle 2 / Length of MD, After-treatment Cycle / Length of MP, Treatment Cycle 1 / Length of MP, Treatment Cycle 2 / Length of MC, Pretreatment Cycle / Length of MP, Pretreatment Cycle: individual animals; for Length of MC, Pretreatment Cycle / Length of MP, Pretreatment Cycle: pretreatment cycle (baseline)
Text: as §1

[8] = system: adult, female bonnet monkeys (Macaca radiata); experiment: Weekly s.c. Onapriston in bonnet monkeys: estradiol and progesterone levels (RIA), folliculogenesis and ovulation; type: in vivo; settings: 5 mg and 10 mg per animal s.c. weekly, 2 cycles
Text: as §1

CC#C[C@]1(O)CC[C@H]2[C@@H]3CCC4=CC(=O)CCC4=C3[C@@H](c3ccc(N(C)C)cc3)C[C@@]21C [RU 486, 11β-[4-N,N-(dimethylamino)phenyl]-17β-hydroxy-17α-propinyl-estra-4,9(10)-dien-3-one]
Dissociation factor [1]: <10

11β,19-[4-(4-cyanophenyl)-o-phenylene]-17β-hydroxy-17α-(3-hydroxyprop-1(Z)-enyl)-4-androsten-3-one [I]
daily dose still completely implantation-inhibiting effective [2]: 0.1 mg
peripherally selective effectiveness (endometrium versus hypophysial-ovarian axis) [1]: surprisingly pronounced peripherally selective effectiveness
Dissociation factor [1]: >100
antiglucocorticoidal effect [3]: not simultaneously antiglucocorticoidally effective

CN(C)c1ccc([C@H]2C[C@]3(C)[C@@H](CC[C@]3(O)CCCO)[C@@H]3CCC4=CC(=O)CCC4=C32)cc1 [Onapriston, 11β-(4-dimethylaminophenyl)-17α-hydroxy-17β-(3-hydroxy-propyl)-13α-methyl-4,9-gonadien-3-one]
contraception reliability [4]: high contraception reliability
control of the cycle compared to the control group [4]: better control of the cycle
tolerance [4]: high tolerance
effect on menstruation [5]: induce premature menstruation
endometrial histology in contrast to control animals [6]: atrophied
length of the cycle and the menstrual period relative to the control group ([7]; 5 mg and 10 mg per animal s.c. weekly, 2 cycles): not changed
Length of MC, After-treatment Cycle ([7]; Group 2, 5 mg/week s.c.): 27 day (2×) and 31 day
Length of MC, Treatment Cycle 1 ([7]; Group 2, 5 mg/week s.c.): 24 days and 27 days and 26 days
Length of MC, Treatment Cycle 2 ([7]; Group 2, 5 mg/week s.c.): 39 days and 29 days and 26 days
Length of MD, After-treatment Cycle ([7]; Group 2, 5 mg/week s.c.): 4 day (2×) and 3 day
Length of MP, Treatment Cycle 1 ([7]; Group 2, 5 mg/week s.c.): 2 day and 1 day (2×)
Length of MP, Treatment Cycle 2 ([7]; Group 2, 5 mg/week s.c.): 5 day and 1 day (2×)
Length of MC, Pretreatment Cycle ([7]; Group 2, 5 mg/week s.c.): 26 days and 28 days and 24 days
Length of MP, Pretreatment Cycle ([7]; Group 2, 5 mg/week s.c.): 1 day (2×) and 3 day
Length of MC, After-treatment Cycle ([7]; Group 3, 10 mg/week s.c.): 26 days and 48 days and 27 days
Length of MC, Treatment Cycle 1 ([7]; Group 3, 10 mg/week s.c.): 25 days and 26 days and 28 days
Length of MD, After-treatment Cycle ([7]; Group 3, 10 mg/week s.c.): 4 days and 1 days and 3 days
Length of MP, Treatment Cycle 1 ([7]; Group 3, 10 mg/week s.c.): 3 day and 1 day (2×)
Length of MP, Treatment Cycle 2 ([7]; Group 3, 10 mg/week s.c.): 1 day (2×) and 2 day
Length of MC, Treatment Cycle 2 ([7]; Group 3, 10 mg/week s.c., * = 2 ovulation cycles, bleeding slight after the first cycle): 53* day and 25 day and 28 day
Length of MC, Pretreatment Cycle ([7]; Group 3, 10 mg/week s.c.): 26 days and 24 days and 30 days
Length of MP, Pretreatment Cycle ([7]; Group 3, 10 mg/week s.c.): 4 days and 2 days and 3 days
folliculogenesis and ovulation (estradiol and progesterone levels) [8]: occurred normally in all animals

11β,19-[4-(3-pyridinyl)-o-phenylene]-17β-hydroxy-17α-(3-hydroxyprop-1(Z)-enyl)-4-androsten-3-one [II]
daily dose still completely implantation-inhibiting effective [2]: 0.3 mg
peripherally selective effectiveness (endometrium versus hypophysial-ovarian axis) [1]: surprisingly pronounced peripherally selective effectiveness
Dissociation factor [1]: >30
antiglucocorticoidal effect [3]: not simultaneously antiglucocorticoidally effective
